# Experimental data as given in US20070293399A1, “SUBSTITUTED DIAMINO-1,3,5-TRIAZINES, PROCESSES FOR THEIR PREPARATION AND THEIR USE AS HERBICIDES AND CROP GROWTH REGULATORS” (Bayer CropScience AG, priority 2006, published 2007).
# Assays:
# [1] = tested on: Stellaria media, Lolium multiflorum, Amaranthus retroflexus, Sinapis alba, Avena sativa and Setaria viridis; test: Pre-emergence herbicidal action (greenhouse pot test); assay type: in vivo; conditions: application rate of 1 kg or less of active substance per hectare; scored visually after 3 to 4 weeks in comparison to untreated controls
# From the text: Seeds or rhizome pieces of mono- and dicotyledonous weed plants were placed in sandy loam in plastic pots and covered with soil. The inventive compounds, which have been formulated in the form of wettable powders or emulsion concentrates, were then applied to the surface of the covering soil as an aqueous suspension or emulsion in different dosages with an application rate of from 600 to 800 l/ha of water (converted).
# [2] = tested on: Sinapis alba, Echinochloa crus-galli, Lolium multiflorum, Stellaria media, Cyperus iria, Amaranthus retroflexus, Setaria viridis, Avena sativa, Lamium …; test: Post-emergence herbicidal action (greenhouse pot test); assay type: in vivo; conditions: application rate of 1 kg and less of active substance per hectare; treated at three-leaf stage; scored visually after approx. 3 to 4 weeks in comparison to untreated controls
# Method: Seeds or rhizome pieces of mono- and dicotyledonous weeds were placed in sandy loam in plastic pots, covered with soil and grown in a greenhouse under good growth conditions. Three weeks after the sowing, the test plants were treated at the three-leaf stage. The inventive compounds formulated as spray powders or as emulsion concentrates were sprayed onto the green plant parts in various dosages with an application rate of from 600 to 800 l/ha of water (converted). After the test plants had been left to stand in the greenhouse under optimal growth conditions for approx. 3 to 4 weeks, the action of the preparations was scored visually in comparison to untreated controls. The inventive compositions also had good post-emergence herbicidal activity against a wide spectrum of economically important gramineous and broadleaf weeds.
smiles,measurement,setting,value
"Cc1ccc2c(c1)[C@H](Nc1ncnc(NC(=O)C(F)(F)F)n1)[C@@H](C)C2 [Compound 2.12, N-(4-{[(1R,2S)-2,6-Dimethyl-2,3-dihydro-1H-inden-1-yl]-amino}-1,3,5-triazin-2-yl)-2,2,2-trifluoroacetamide]",herbicidal action against harmful plants in the pre-emergence method,[1],very good herbicidal action
same,herbicidal action against harmful plants in the post-emergence method,[2],very good herbicidal action
CC(=Nc1ncnc(N[C@H]2c3cc(C)ccc3C[C@@H]2C)n1)N(C)C [Compound 2.160],herbicidal action against harmful plants in the pre-emergence method,[1],very good herbicidal action
same,herbicidal action against harmful plants in the post-emergence method,[2],very good herbicidal action
"C[C@@H](F)c1nc(NCCC#N)nc(N[C@@H]2CCCc3ccccc32)n1 [Compound 2.38, 3-({4-[(1R)-1-Fluoroethyl]-6-[(1R)-1,2,3,4-tetrahydronaphth-1-ylamino]-1,3,5-triazin-2-yl}amino)propanenitrile]",herbicidal action against harmful plants in the pre-emergence method,[1],very good herbicidal action
same,herbicidal action against harmful plants in the post-emergence method,[2],very good herbicidal action
CC(=O)Nc1ncnc(NC2CCOc3ccc(C)cc32)n1 (racemic) [Compound 1.47],herbicidal action against harmful plants in the pre-emergence method,[1],very good herbicidal action
same,herbicidal action against harmful plants in the post-emergence method,[2],very good herbicidal action
CC1Cc2ccc(F)cc2C1Nc1ncnc(NC(=O)C(F)(F)F)n1 (racemic) [Compound 1.3],herbicidal action against harmful plants in the pre-emergence method,[1],very good herbicidal action
same,herbicidal action against harmful plants in the post-emergence method,[2],very good herbicidal action
Cc1ccc2c(c1)C(Nc1nc(NC(=S)NCc3ccccc3)nc(C(C)F)n1)C(C)C2 (centres unmarked) [Compound 2.131],herbicidal action against harmful plants in the pre-emergence method,[1],very good herbicidal action
same,herbicidal action against harmful plants in the post-emergence method,[2],very good herbicidal action
CCOC(C)=Nc1nc(N[C@H]2c3cc(C)ccc3C[C@H]2C)nc(C(F)F)n1 [Compound 2.191],herbicidal action against harmful plants in the pre-emergence method,[1],very good herbicidal action
same,herbicidal action against harmful plants in the post-emergence method,[2],very good herbicidal action
COC(=O)Nc1nc(CF)nc(NC2c3cc(F)ccc3CC2C)n1 (racemic) [Compound 1.11],herbicidal action against harmful plants in the pre-emergence method,[1],very good herbicidal action
same,herbicidal action against harmful plants in the post-emergence method,[2],very good herbicidal action
CC(=O)Nc1ncnc(N[C@H]2c3cc(C)ccc3C[C@@H]2C)n1 [Compound 2.9],herbicidal action against harmful plants in the pre-emergence method,[1],very good herbicidal action
same,herbicidal action against harmful plants in the post-emergence method,[2],very good herbicidal action
Cc1ccc2c(c1)C(Nc1nc(NC(=S)NC(C)(C)C)nc(C(C)F)n1)C(C)C2 (centres unmarked) [Compound 2.76],herbicidal action against harmful plants in the pre-emergence method,[1],very good herbicidal action
same,herbicidal action against harmful plants in the post-emergence method,[2],very good herbicidal action
Cc1ccc2c(c1)C(Nc1nc(NC(=S)Nc3ccc(F)cc3)nc(C(C)F)n1)C(C)C2 (centres unmarked) [Compound 2.129],herbicidal action against harmful plants in the pre-emergence method,[1],very good herbicidal action
same,herbicidal action against harmful plants in the post-emergence method,[2],very good herbicidal action
Cc1ccc2c(c1)[C@H](Nc1nc(NC(=O)C(F)(F)F)nc([C@@H](C)F)n1)[C@@H](C)C2 [Compound 2.26],herbicidal action against harmful plants in the pre-emergence method,[1],very good herbicidal action
same,herbicidal action against harmful plants in the post-emergence method,[2],very good herbicidal action
Cc1ccc2c(c1)[C@H](Nc1ncnc(N=CN(C)C)n1)[C@@H](C)C2 [Compound 2.155],herbicidal action against harmful plants in the pre-emergence method,[1],very good herbicidal action
same,herbicidal action against harmful plants in the post-emergence method,[2],very good herbicidal action
CCC(=O)Nc1ncnc(NC2c3cc(F)ccc3CC2C)n1 (racemic) [Compound 1.5],herbicidal action against harmful plants in the pre-emergence method,[1],very good herbicidal action
same,herbicidal action against harmful plants in the post-emergence method,[2],very good herbicidal action
"CC(=O)Nc1ncnc(N[C@@H]2CCCc3ccccc32)n1 [Compound 2.1, N1-{4-[(1R)-1,2,3,4-Tetrahydro-1-naphthylamino]-1,3,5-triazin-2-yl}acetamide]",herbicidal action against harmful plants in the pre-emergence method,[1],very good herbicidal action
same,herbicidal action against harmful plants in the post-emergence method,[2],very good herbicidal action
C[C@@H](F)c1nc(NC(=O)C2CC2)nc(N[C@@H]2CCCc3ccccc32)n1 [Compound 2.68],herbicidal action against harmful plants in the pre-emergence method,[1],very good herbicidal action
same,herbicidal action against harmful plants in the post-emergence method,[2],very good herbicidal action
Cc1ccc2c(c1)[C@H](Nc1nc(C)nc(N=CN(C)C)n1)[C@@H](C)C2 [Compound 2.170],herbicidal action against harmful plants in the pre-emergence method,[1],very good herbicidal action
same,herbicidal action against harmful plants in the post-emergence method,[2],very good herbicidal action
"CC(=Nc1nc(N[C@@H]2CCCc3ccccc32)nc([C@@H](C)F)n1)N(C)C [Compound 2.159, N′-{4-[(1R)-1-Fluoroethyl]-6-[(1R)-1,2,3,4-tetrahydronaphth-1-ylamino]-1,3,5-triazin2-yl}-N,N-dimethylethanimide amide]",herbicidal action against harmful plants in the pre-emergence method,[1],very good herbicidal action
same,herbicidal action against harmful plants in the post-emergence method,[2],very good herbicidal action
Cc1ccc2c(c1)C(Nc1nc(NC(=O)C3CC3)nc(C(C)F)n1)C(C)C2 (centres unmarked) [Compound 2.67],herbicidal action against harmful plants in the pre-emergence method,[1],very good herbicidal action
same,herbicidal action against harmful plants in the post-emergence method,[2],very good herbicidal action
C[C@@H]1Cc2ccccc2[C@@H]1Nc1nc(N=CN(C)C)nc(C(F)F)n1 [Compound 2.175],herbicidal action against harmful plants in the pre-emergence method,[1],very good herbicidal action
same,herbicidal action against harmful plants in the post-emergence method,[2],very good herbicidal action
Cc1ccc2c(c1)[C@H](Nc1nc(NC(=S)NC3CCCCC3)nc([C@@H](C)F)n1)[C@@H](C)C2 [Compound 2.139],herbicidal action against harmful plants in the pre-emergence method,[1],very good herbicidal action
same,herbicidal action against harmful plants in the post-emergence method,[2],very good herbicidal action
"C[C@@H](F)c1nc(N[C@@H]2CCCc3ccccc32)nc(N(CCC#N)CCC#N)n1 [Compound 2.39, 3,3′-({4-[(1R)-1-Fluoroethyl]-6-[(1R)-1,2,3,4-tetrahydronaphth-1-ylamino]-1,3,5-triazin-2-yl}imino)dipropanenitrile]",herbicidal action against harmful plants in the pre-emergence method,[1],very good herbicidal action
same,herbicidal action against harmful plants in the post-emergence method,[2],very good herbicidal action
CC1Cc2ccc(F)cc2C1Nc1ncnc(NC(=O)CCl)n1 (racemic) [Compound 1.4],herbicidal action against harmful plants in the pre-emergence method,[1],very good herbicidal action
same,herbicidal action against harmful plants in the post-emergence method,[2],very good herbicidal action
CC(=O)Nc1ncnc(NC2c3cccc(C)c3CC2C)n1 (racemic) [Compound 1.46],herbicidal action against harmful plants in the pre-emergence method,[1],very good herbicidal action
same,herbicidal action against harmful plants in the post-emergence method,[2],very good herbicidal action
Cc1ccc2c(c1)[C@H](Nc1nc(NC(=O)C(C)(C)C)nc(C(F)F)n1)[C@@H](C)C2 [Compound 2.151],herbicidal action against harmful plants in the pre-emergence method,[1],very good herbicidal action
same,herbicidal action against harmful plants in the post-emergence method,[2],very good herbicidal action
Cc1ccc(NC(=S)Nc2nc(NC3c4cc(C)ccc4CC3C)nc(C(C)F)n2)cc1 (centres unmarked) [Compound 2.128],herbicidal action against harmful plants in the pre-emergence method,[1],very good herbicidal action
same,herbicidal action against harmful plants in the post-emergence method,[2],very good herbicidal action
CC(=O)Nc1nc(C)nc(N[C@H]2c3cc(C)ccc3C[C@@H]2C)n1 [Compound 2.33],herbicidal action against harmful plants in the pre-emergence method,[1],very good herbicidal action
same,herbicidal action against harmful plants in the post-emergence method,[2],very good herbicidal action
Cc1ccc2c(c1)[C@H](Nc1nc(C=O)nc(C(F)F)n1)[C@H](C)C2 [Compound 2.190],herbicidal action against harmful plants in the pre-emergence method,[1],very good herbicidal action
same,herbicidal action against harmful plants in the post-emergence method,[2],very good herbicidal action
COC(C)(C)CNC(=O)Nc1nc(NC2c3cc(C)ccc3CC2C)nc(C(C)F)n1 (centres unmarked) [Compound 2.105],herbicidal action against harmful plants in the pre-emergence method,[1],very good herbicidal action
same,herbicidal action against harmful plants in the post-emergence method,[2],very good herbicidal action
Cc1ccc2c(c1)[C@H](Nc1nc(C=O)nc([C@@H](C)F)n1)[C@H](C)C2 [Compound 2.195],herbicidal action against harmful plants in the pre-emergence method,[1],very good herbicidal action
same,herbicidal action against harmful plants in the post-emergence method,[2],very good herbicidal action
Cc1ccc2c(c1C)OCCC2Nc1nc(NC(=O)C2CC2)nc(C2CC2)n1 (racemic) [Compound 1.70],herbicidal action against harmful plants in the pre-emergence method,[1],very good herbicidal action
same,herbicidal action against harmful plants in the post-emergence method,[2],very good herbicidal action
